Measured values taken from patent US20220217970A1, “Perfusion Regulated Organ Therapeutics with Enhanced Controlled Testing” (priority 2021, published 2022).

How the values were obtained:
[1] = test system: split human marginal donor liver (MDL) lobes; test: Ki67 and CK-7 immunohistochemistry labeling index of perfused split lobes (Experiment 2)
Procedure: As a proof of concept, the system 10 was used to test the effect on IRI by deferoxamine (DM), which is a chelator of iron and a ferroptosis regulator. During the testing, one liver lobe was used as an internal control for the treated lobe. Ferroptosis, an iron-dependent form of programmed cell death, has been implicated as a mechanism of pathogenesis in models of liver, kidney, and lung reperfusion injury. […] In the DM Agent Treated (DMAT) lobe, DM was administered to one split liver segment, while the other segment served as the No Agent Internal Control (NAIC) lobe. This experiment was deemed as Experiment 2.
(§1) DM Dosing: In addition to the liver lobe weight, the volume of the cold preservation solution was measured. […]
Liver biopsy tissue from each liver segment was fixed in 10% buffered formalin for 24 hours. […] The following describes the specific stains and the methods utilized for quantification.
Ki67 labeling index: The nuclear antigen Ki67 is expressed in the cell cycle phases G1, S, G2 and M, however not during G0. The percentage of the Ki67 positive nuclei are expressed as a labeling index, which provides an objective cell proliferation index in the tissues. […] All the positive (immunoreactive) hepatic nuclei were calculated and subsequently divided by the total number of cells in 5 non-overlapping high-power fields. […]

[2] = test system: split human marginal donor liver (MDL) lobes; test: Serological liver injury markers during PROTECT normothermic perfusion of split liver lobes (Experiment 2); details: DM infusion 0.6 mmol/L, listed as DMAT
Excerpt: In order to provide anatomic perfusion, a novel NMP described above and shown in FIGS. 1 and 2 was developed using an extra-corporal membrane oxygenation (ECMO) roller pump (Sorin/Stockert S3) with a modified circuit to provide dual blood supply to the hepatic artery and portal vein. Incorporated into this design was an arterial supply that passes through an oxygenator (Capiox Fx) and was connected to the hepatic artery.
Portal venous blood supply bypassed the oxygenator, was delivered to a reservoir, and then flowed by gravity into the portal vein. Pressure was regulated by the intrinsic resistance within the liver's arterial and portal venous circulations, combined with the resistance within the two limbs of the circuit and the flow delivered to each. […]
The circuit was monitored under guidance from a University certified ECMO perfusionist and the hospital ECMO physician team. […]
During each perfusion run (Table 1), laboratory analysis was carried out at regular intervals. Perfusate pH, pCO2, pO2, bicarbonate levels, and serum electrolytes (Na^+, K^+, Cl^−, ionized Ca^2+) were monitored every hour by automated blood gas analysis of both arterial and portal venous blood samples. […] Serum markers of liver injury, specifically AST, ALT, GGT, and alkaline phosphatase, were monitored hourly. […]
as §1

CC(=O)N(O)CCCCCNC(=O)CCC(=O)N(O)CCCCCNC(=O)CCC(=O)N(O)CCCCCN [Deferoxamine]
CK-7 expression (labeling index, bile duct proliferation) ([1]; Experiment 2, DMAT lobe (NAIC 0.30, p=0.29, n=5)): 0.26
Ki67 index (hepatocellular proliferation) ([1]; conclusion of Experiment 2, DMAT lobe (NAIC 0.38, p=0.16)): 0.32
ΔALT (change in serum ALT over the course of the experiment) ([2]; Experiment 2, DM Agent Treated lobe vs No Agent Internal Control lobe (ΔALT NAIC 586)): −405
ΔAST (change in serum AST over the course of the experiment) ([2]; Experiment 2, DM Agent Treated lobe vs No Agent Internal Control lobe (ΔAST NAIC 617)): −380
